From patent publication US20200055848A1, “FURANONE DERIVATES AND METHODS OF USE THEREOF” (CARNA BIOSCIENCES, INC., priority 2016, published 2020)
pIC50: −log10 of the molar value. Like-named read-outs stand apart in the source and are kept apart here.

Target: T1, human Cdc7/human ASK complex protein (Homo sapiens, UniProt O00311)
T1 construct: purchased Carna Biosciences, Inc
Experiment: Cdc7/ASK enzymatic assay
Assay type: biochemical
Conditions: for pIC50: read-out: Cdc7 IC50
Protocol: Measurement of Cdc7 kinase activity was carried out using MSA assay kit (QuickScout™ Screening Assist Kit, Carna Biosciences, Inc.). Assay buffer (20 mM HEPES, 0.01% Triton X-100™, 2 mM dithiothreitol, pH 7.5) was used to prepare a substrate mixture solution comprising 4 μM of kinase-reaction substrate (FITC-labeled MCM2 peptide), 40 mM MgCl2, and 4 times concentrations of final targeted ATP (5, 100, and 1,000 μM). The enzyme supplied in the kit (human Cdc7/human ASK complex protein) was diluted into the assay buffer to prepare a 7 nM solution (enzyme solution). The compound stock solution was prepared by diluting a 10 mM DMSO solution into the assay buffer (final 4% DMSO). The kinase reaction was performed by mixing of 5 μL of the compound solution, 5 μL of the substrate mixture solution, and 10 μL of the enzyme solution in a 384-well plate. For the pre-incubation assay, the compound solution and the enzyme solution were pre-mixed and incubated at ambient temperature for 30 min before adding into the substrate mixture solution to start enzymatic reaction. After the reaction at 25° C. for 5 hours, 60 μL of the termination buffer (supplied in the kit) was added to stop the reaction. The phosphorylation of substrate was measured using a LabChip EZ Reader II system (Caliper Life Sciences). The percent inhibition (%) by a tested compound was calculated according to the following formula:
Percent inhibition (%)=(1−(C−A)/(B−A))×100
A represents P/(P+S) for a blank well, B represents P/(P+S) for a solvent well, and C represents P/(P+S) for a compound-added well. S: the peak heights of the separated substrate, P: phosphorylated substrate.
The IC50 value of tested compound was calculated by regression analysis of the percent inhibition values versus the (logarithmic) concentration of the tested compound.

pIC50 (5 μM ATP, mean of duplicated assays): 8.62
Fold selectivity, Cdc7 (IC50 for each kinase versus Cdc7): 1.0 fold
pIC50 (in the presence of 1 mM ATP, without pre-incubation): 6.72
IC50 (kinase selectivity table, 1 mM ATP with preincubation, mean of duplicated assays, read-out: IC50 (nM), Cdc7): 0.6 nM
Compound: CCOC(=O)C1=C(Nc2ccccc2Cl)OC(=Cc2c[nH]c3ncccc23)C1=O [Compound 13, Ethyl 5-((1H-pyrrolo[2,3-b]pyridin-3-yl)methylene)-2-((2-chlorophenyl)amino)-4-oxo-4,5-dihydrofuran-3-carboxylate]
pre-incubation effect on Cdc7 inhibition (30 min pre-incubation with Cdc7, various ATP concentrations up to 1 mM): inhibitory potencies were sustained even in the presence of 1 mM ATP
ATP competition assay: effect of ATP concentration on inhibitory potency (various ATP concentrations, without pre-incubation): ATP-dependent proportional decreases in inhibitory potencies
